The results in this text go back to US7485315B2, “Compositions comprising a compound of low solubility and a lipophilic amino acid derivative, uses thereof and process for dissolving a compound of low solubility” (L'Oreal, priority 2001, dated 2009).

Structures are written as SMILES.

Series [1] can be described thus: Simple solubility in isopropyl N-lauroylsarcosinate.
Procedure: Protocol: The derivatives of low solubility in water are weighed out and placed in a sealed pill bottle. The required amount of solvent is added. The suspension is stirred (magnetic stirring) at 80° C. for not more than 1 hour.
The non-solubility of the active agent in the solvent is characterized macroscopically by a precipitate or just a cloudy solution, and microscopically by the presence of crystals.
The solvent used is isopropyl N-lauroylsarcosinate.
Series [2] can be described thus: Dissolution by lipophilic amino acid derivatives without recrystallization. The series is classed as physicochemical. As to conditions: in lipophilic amino acid derivatives, after 24 hours at 25° C. As to the method: By way of illustration, the lipophilic amino acid derivatives used for the purposes of the present patent application allowed the dissolution of: • more than 20% of aminophenol derivatives without recrystallization after three weeks at 25° C., • more than 15% of salicylic acid derivatives without recrystallization after three weeks at 25° C. • about 4% of diosgenin or hecogenin acetate without recrystallization after 24 hours at 25° C.

Setting [3] is: content 5% in isopropyl N-lauroylsarcosinate.
[4] abbreviates: content 2% in isopropyl N-lauroylsarcosinate.

Regarding `CCOC(=O)Nc1ccc(O)cc1` [N-ethoxycarbonyl-para-aminophenol, N-ethoxycarbonyl-4-para-aminophenol], the “Stability over time at 25° C. (clear for)” value in series [1] (setting [3]) is reported as “clear for 18 days”; in series [1] (content 20% in isopropyl N-lauroylsarcosinate), “clear for 6 days”; in series [1] (content 23% in isopropyl N-lauroylsarcosinate) it was “clear for 6 days”; in series [1] (content 26% in isopropyl N-lauroylsarcosinate), “clear for 1 day”.
With `C[C@@H]1CC[C@@]2(OC1)O[C@H]1C[C@H]3[C@@H]4CC=C5C[C@@H](O)CC[C@]5(C)[C@H]4CC[C@]3(C)[C@H]1[C@@H]2C` [Diosgenin, 5-spirostene-3-β-ol], the “Stability over time at 25° C. (clear for)” value in series [1] (setting [4]) is listed as “clear for 3 weeks”. Moreover, in series [2], the “Amount dissolved without recrystallization” value is “about 4%”.
Regarding `CCCCCCCCCCCCNc1ccnc(N)[n+]1[O-]` [2-amino-4-dodecylaminopyrimidine 3-oxide], the “Stability over time at 25° C. (clear for)” value in series [1] (content 1% in isopropyl N-lauroylsarcosinate) is given as “clear for 1 day”.
With `CCCCCCCC(=O)c1ccc(O)c(C(=O)O)c1` [5-n-octanoylsalicylic acid], the “Stability over time at 25° C. (clear for)” value in series [1] (setting [3]) is “clear for 7 days”; in series [1] (content 9% in isopropyl N-lauroylsarcosinate), “clear for 4 days”. The “Stability over time at 25° C.” value in series [1] (content 27% in isopropyl N-lauroylsarcosinate) was “clear”.
Turning to `CC(=O)O[C@H]1CC[C@@]2(C)[C@@H](CC[C@@H]3[C@@H]2CC(=O)[C@]2(C)[C@@H]4[C@H](C[C@@H]32)O[C@]2(CC[C@@H](C)CO2)[C@H]4C)C1` [Hecogenin acetate, (3β, 5α, 25R)-3-hydroxyspirostan-12-one (hecogenin acetate)], in series [1] (setting [4]), the “Stability over time at 25° C. (clear for)” value is “clear for 1 day”. Also, the “Amount dissolved without recrystallization” value in series [2] is recorded as “about 4%”.
